Here are results for one compound from paper PMC11532403 (Signal Transduction and Targeted Therapy, 2024).

Each structure is given as a SMILES string. Like-named read-outs stand apart in the source and are kept apart here.

The nature of series [1]: Pharmacokinetics in beagles. The series is classed as in vivo. To be noted: both sexes, beagle, dog, plasma, iv, 1 mg/kg i.v.
Series [2] can be described thus: Plasma protein binding, rapid equilibrium dialysis. The settings on record: monkey, read-out: Plasma protein binding rate (converted). It counts as in vitro ADME. For orientation: Equilibrium dialysis compares concentrations on both sides of a semipermeable membrane.
A further series deals with RET-driven xenografts. The series is described as follows: RET-driven xenograft models, overall. The settings on record: for Effective tumor suppressant dose (mg/kg): tumor-bearing mice. The series is classed as in vivo, mice. As for the experimental part:
All procedures relating to animal handling, care, and treatment were performed according to the Beijing Laboratory Animal Management Regulations. 6-week-old male BALB/c nude mice were inoculated subcutaneously into the flank with Baf3-CCDC6-RET^WT (5*10^6 cells/ 0.1 mL/ each), Baf3-CCDC6-RET^M918T (5*10^6 cells/0.1 mL/each), Baf3-CCDC6-RET^V804M (5*10^6 cells/ 0.1 mL/ each), or HEK293T-KIF5B-RET^V804M (5*10^6 cells/ 0.1 mL/ each). Mice were randomized by tumor size into groups of 10 to 12 when tumor volume reached approximately 100-150 mm^3. […] Tumor size and body weight were measured two times each week, and tumor volume was calculated with the following formula: [length × (width)^2]/ 2. Statistical significance was calculated by using two-way ANOVA test to assess the difference in tumor volumes between the control (vehicle-treated) and treatment groups.
Supplementary Figure S1. […] Mice bearing Baf3-CCDC6-RET^WT (a), Baf3-CCDC6-RET^M918T (b) and Baf3-CCDC6-RET^V804M (c) xenograft and time course of treatment. Data represent mean ± standard error of the mean (SEM). There were 12 mice in each group in both models. d, Mice bearing HEK293T-KIF5B-RET^V804M xenograft and time course of treatment. Data represent mean ± SEM. There were 10 mice in each group in this model. […] Statistical analysis was performed using a two-way ANOVA test. *, […]; **, p < 0.01; ***, p < 0.001; ****, p < 0.0001. Abbreviations: bid, bis in die; mc, methyl cellulose; mpk, mg/Kg.

The test system of a further series is NIH-3T3 cells. In words: Proliferation assay (CellTiter-Glo). The series is classed as cell-based, murine. To be noted: Mus musculus, NIH3T3; NIH-3T3 (RET-negative); read-out: Cellular Viability IC50. As to the method:
The cell lines HEK293T, Baf3, TT cell and NIH-3T3 were obtained from the Cell Resource Center, Peking Union Medical College (PCRC). […] All stably transformed BaF3 cells were cultured in RPMI 1640 without IL‐3. […] Cells were cultured at 37 °C under 5 % CO2 and high humidity conditions. […] Cell viability was assessed by luminescence using CellTiter-Glo 2.0 assay (Promega). IC50 curve fitting was performed using GraphPad Prism 9.0.
On the technique in general: In ATP-based viability assays light output follows the ATP content of the culture.

A short description of series [3]: Plasma protein binding, rapid equilibrium dialysis. The series is classed as in vitro ADME. The settings on record: mouse, read-out: Plasma protein binding rate.
The target of another series is T1, CYP2C19 (Homo sapiens, UniProt P33261).
T1 construct: substrates of different CYP450 enzymes in mixed human liver microsomes; from tissue; host or cells: mixed human liver microsomes
The series is described as follows: CYP inhibition in human liver microsomes. The series is classed as in vitro ADME. To be noted: 0.5-25 μM. For orientation: Liver microsomes are a subcellular fraction often used to study metabolism.

Series [4] is described as follows: Excretion in rats (feces, urine, bile). It counts as in vivo. As for the experimental part:
The total fecal and urinary excretion of prodrug and metabolite was 62.8% of the administered dose. The amount of prodrug and metabolite in bile from 0 to 48 h in bile duct-intubated rats was 5.22% of the administered dose, of which 0.656% was prodrug and 4.57% was metabolite.

The target in another series is T2, RET^M918T (Homo sapiens, UniProt P07949, M918T).
T2 construct: RET (residues 658-1114) was cloned into pFastBac vector containing an N-terminal Glutathione S-transferase (GST) tag; made in house; host or cells: Sf9 insect cells (baculovirus)
The series is described as follows: HTRF kinEASE-TK kinase assay. The settings on record: ATP at Km; read-out: Biochemical IC50 RET^M918T. As for the experimental part:
RET (residues 658-1114) was cloned into pFastBac vector containing an N-terminal Glutathione S-transferase (GST) tag. Mutagenesis was performed on this vector to generate the RET^V804M single mutant: RETV804MmutF: […]a[…] and RETV804MmutR: […]t[…]; the RET^M918T single mutant: RETM918TmutF: […]c[…] and RETM918TmutR: […]g[…]; the RET^G810S single mutant: RETG810SmutF: […]tc[…] and RETG810SmutR: […]ga[…]. Recombinant baculovirus for expression of GST-RET was generated by co-transfection of Sf9 cells. Plaque-purified viruses were amplified, titrated and used to infect Sf9 cells incubated at 27 °C and 80 rpm. Cells were harvested 72 h post infection for protein purification.
Frozen cell pellets (1 liter culture/each) were thawed and resuspended in 20 ml of buffer A (50mM Tris-HCl, pH 7.5, 150mM NaCl, 0.1mM EDTA, 0.5% Triton X-100, 20% glycerol and 1* protease inhibitor [#539134-1SETCN, Merck]) and sonicated. The cell lysates were centrifuged at 20000 rpm for 40 min at 4 °C, then applied to GSH-Sepharose 4 Fast Flow (GE Healthcare) at 4 °C. After washing twice with 10 mL of buffer B (50mM Tris-HCl, pH 7.5, 150mM NaCl, 0.1 mM EDTA, 20% glycerol), the protein was eluted with elution buffer (50mM Tris-HCl, pH 7.5, 150mM NaCl, 0.1mM EDTA, 20% glycerol, 20mM Glutathione, 1 mM DTT) and concentrated using Amicon Ultra-15. Purities of proteins were 90% as determined by SDS-PAGE and Coomassie Blue stain.
Kinase activity was detected using CisBio HTRF kinEASE-TK kit. The assay was performed in 384-well white plates (#3574, Corning) in a reaction volume of 10 μL containing a final concentration of 50 mM HEPES, pH 7.5, 0.1 mM Na3VO4,0.01% BSA, 0.001% Tween-20, 5 mM MgCl2, […], 1 mM DTT, 1 μM TK-Substrate-biotin. The reaction was initiated by the addition of ATP at Km and indicated recombinant RET proteins. […] After incubation at 23 °C for 1 hour, FRET signal was measured on an EnVision reader (PerkinElmer Inc.).

The next series deals with T3, CYP1A2 (Homo sapiens, UniProt P05177).
T3 construct: substrates of different CYP450 enzymes in mixed human liver microsomes; from tissue; host or cells: mixed human liver microsomes
In words: CYP inhibition in human liver microsomes. The series is classed as in vitro ADME. To be noted: 0.5-25 μM.

T1 sequence (P33261 whole entry): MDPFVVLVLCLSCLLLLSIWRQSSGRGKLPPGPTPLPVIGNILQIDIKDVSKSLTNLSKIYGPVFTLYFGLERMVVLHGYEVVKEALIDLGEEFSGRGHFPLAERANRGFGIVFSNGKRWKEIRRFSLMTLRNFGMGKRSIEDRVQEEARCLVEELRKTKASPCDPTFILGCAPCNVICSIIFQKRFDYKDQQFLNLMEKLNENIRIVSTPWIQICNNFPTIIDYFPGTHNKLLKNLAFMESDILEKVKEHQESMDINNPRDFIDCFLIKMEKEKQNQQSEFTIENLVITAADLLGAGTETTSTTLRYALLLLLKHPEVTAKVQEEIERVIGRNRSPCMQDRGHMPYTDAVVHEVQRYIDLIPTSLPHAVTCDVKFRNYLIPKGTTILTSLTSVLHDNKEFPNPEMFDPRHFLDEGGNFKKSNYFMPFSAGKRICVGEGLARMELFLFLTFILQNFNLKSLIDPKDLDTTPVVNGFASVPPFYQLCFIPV
T2 sequence (P07949 658-1114 M918T): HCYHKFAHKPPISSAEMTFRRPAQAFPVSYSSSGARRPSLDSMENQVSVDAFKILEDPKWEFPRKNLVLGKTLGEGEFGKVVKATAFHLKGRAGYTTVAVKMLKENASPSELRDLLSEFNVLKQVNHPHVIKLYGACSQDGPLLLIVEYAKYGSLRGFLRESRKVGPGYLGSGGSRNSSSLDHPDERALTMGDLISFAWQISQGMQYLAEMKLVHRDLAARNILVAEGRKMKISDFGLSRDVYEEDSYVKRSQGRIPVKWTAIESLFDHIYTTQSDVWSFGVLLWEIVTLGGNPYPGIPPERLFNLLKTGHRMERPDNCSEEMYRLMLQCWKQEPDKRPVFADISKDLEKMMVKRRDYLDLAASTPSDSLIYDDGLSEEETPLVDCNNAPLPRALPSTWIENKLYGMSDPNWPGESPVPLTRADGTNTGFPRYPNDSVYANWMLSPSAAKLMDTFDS
T3 sequence (P05177 whole entry): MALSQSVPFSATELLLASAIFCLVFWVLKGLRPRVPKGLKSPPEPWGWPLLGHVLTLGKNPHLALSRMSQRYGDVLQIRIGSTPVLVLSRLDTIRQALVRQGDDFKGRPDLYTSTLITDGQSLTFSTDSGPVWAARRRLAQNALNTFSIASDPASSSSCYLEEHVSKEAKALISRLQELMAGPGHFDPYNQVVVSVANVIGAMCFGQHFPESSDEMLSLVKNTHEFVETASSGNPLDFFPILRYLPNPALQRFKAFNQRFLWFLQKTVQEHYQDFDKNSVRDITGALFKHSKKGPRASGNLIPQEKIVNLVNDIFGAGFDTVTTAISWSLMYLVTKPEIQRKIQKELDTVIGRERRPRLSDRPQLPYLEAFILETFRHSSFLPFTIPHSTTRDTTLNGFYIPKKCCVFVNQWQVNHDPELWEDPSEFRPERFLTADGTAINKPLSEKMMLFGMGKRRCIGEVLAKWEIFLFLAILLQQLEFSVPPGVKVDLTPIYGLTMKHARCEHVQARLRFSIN

For orientation: clearance means the volume of plasma or blood freed of the substance per unit of time. Higher therefore signals a high capacity for elimination. As usually defined, the half-life is how long it takes for the measured level to halve. Read a low half-life as fast loss. One may read the IC50 as the concentration that inhibits the measured activity by half. The compound `COc1ccc(CN2C3CC2CN(c2ccc(-c4cc(N5CC(C)(O)C5)cn5ncc(C#N)c45)cn2)C3)cn1` [SY-5007, 6-(3-hydroxy-3-methylazetidin-1-yl)-4-(6-(6-((6-methoxypyridin-3-yl)methyl)-3,6-diazabicyclo[3.1.1]heptan-3-yl)pyridin-3-yl)pyrazolo[1,5-a]pyridine-3-carbonitrile] had a clearance in series [1] of 6.63 mL/min/kg. Also, the half-life in series [1] was 3.27 h. For the same compound, the Vd in [1] (read-out: Vss) is 1.43 L/kg. Moreover, the fraction unbound in series [2] is 0.023; in series [3], 0.01. Besides, in the series with RET-driven xenografts (mouse, in vivo), the “Minimal effective dose (significant tumor growth inhibition in most models)” value worked out at 10 mg/kg BID. Besides, the “Effective tumor suppressant dose (mg/kg)” value in the series on RET-driven xenografts (daily dose of 3 mg/kg BID) is reported as 6(3 mg/kg BID); with RET-driven xenografts (daily dose of 6 mg/kg BID), 12(6 mg/kg BID). For the same compound, the half-inhibitory concentration (IC50) was over 5 µM in the series with NIH-3T3 cells, over 25 µM on CYP2C19, 0.00084 µM on RET^M918T and over 25 µM against CYP1A2. In addition, the “Fecal excretion, prodrug (parent)” value in series [4] (20 mg/kg gavage) is given as 55.4%. In series [4] (20 mg/kg gavage), the “Urinary excretion, prodrug (parent)” value was 0.801%. For the same compound, in series [4] (bile duct-intubated rats), the “Bile excretion, prodrug (parent)” value turned out to be 0.656%.
